Data: ChEMBL document CHEMBL1152441, “Discovery of [18F]N-(2-(diethylamino)ethyl)-6-fluoronicotinamide: a melanoma positron emission tomography imaging radiotracer with high tumor to body contrast ratio and rapid renal clearance” (J Med Chem, 2009)

Key:
[1] = Biodistribution in eye of mouse B16F0 cells implanted C57BL/6J mouse assessed per gram of tissue at 0.4 to 5.5 MBq, iv after 6 hrs by gamma counter; type: ADME, organism-based; conditions: in vivo
[2] = Biodistribution in eye of mouse B16F0 cells implanted C57BL/6J mouse assessed per gram of tissue at 0.4 to 5.5 MBq, iv after 3 hrs by gamma counter; type: ADME, organism-based; conditions: in vivo
[3] = Lipophilicity, log P at pH 7.5; type: physicochemical; conditions: buffer
Stomach [4] = assay: Biodistribution in stomach of mouse B16F0 cells implanted C57BL/6J mouse assessed per gram of tissue at 0.4 to 5.5 MBq, iv after 1 hr by gamma counter; type: ADME, organism-based; conditions: in vivo
Stomach [5] = assay: Biodistribution in stomach of mouse B16F0 cells implanted C57BL/6J mouse assessed per gram of tissue at 0.4 to 5.5 MBq, iv after 0.25 hrs by gamma counter; type: ADME, organism-based; conditions: in vivo
Bone [6] = assay: Biodistribution in bone of mouse B16F0 cells implanted C57BL/6J mouse assessed per gram of tissue at 0.4 to 5.5 MBq, iv after 0.25 hrs by gamma counter; type: ADME, organism-based, Bone element; conditions: in vivo
[7] = Biodistribution in eye of mouse B16F0 cells implanted C57BL/6J mouse assessed per gram of tissue at 0.4 to 5.5 MBq, iv after 1 hr by gamma counter; type: ADME, organism-based; conditions: in vivo
Lung [8] = assay: Biodistribution in lung of mouse B16F0 cells implanted C57BL/6J mouse assessed per gram of tissue at 0.4 to 5.5 MBq, iv after 6 hrs by gamma counter; type: ADME, organism-based; conditions: in vivo
[9] = Biodistribution in tumor of mouse B16F0 cells implanted C57BL/6J mouse assessed per gram of tissue at 0.4 to 5.5 MBq, iv after 1 hr by gamma counter; type: ADME, organism-based, Neoplasm; conditions: in vivo
Intestine [10] = assay: Biodistribution in intestine of mouse B16F0 cells implanted C57BL/6J mouse assessed per gram of tissue at 0.4 to 5.5 MBq, iv after 0.25 hrs by gamma counter; type: ADME, organism-based; conditions: in vivo
Bone [11] = assay: Biodistribution in bone of mouse B16F0 cells implanted C57BL/6J mouse assessed per gram of tissue at 0.4 to 5.5 MBq, iv after 1 hr by gamma counter; type: ADME, organism-based, Bone element; conditions: in vivo
Intestine [12] = assay: Biodistribution in intestine of mouse B16F0 cells implanted C57BL/6J mouse assessed per gram of tissue at 0.4 to 5.5 MBq, iv after 3 hrs by gamma counter; type: ADME, organism-based; conditions: in vivo
Spleen [13] = assay: Biodistribution in spleen of mouse B16F0 cells implanted C57BL/6J mouse assessed per gram of tissue at 0.4 to 5.5 MBq, iv after 6 hrs by gamma counter; type: ADME, organism-based; conditions: in vivo
Lung [14] = assay: Biodistribution in lung of mouse B16F0 cells implanted C57BL/6J mouse assessed per gram of tissue at 0.4 to 5.5 MBq, iv after 1 hr by gamma counter; type: ADME, organism-based; conditions: in vivo
Spleen [15] = assay: Biodistribution in spleen of mouse B16F0 cells implanted C57BL/6J mouse assessed per gram of tissue at 0.4 to 5.5 MBq, iv after 3 hrs by gamma counter; type: ADME, organism-based; conditions: in vivo
Lung [16] = assay: Biodistribution in lung of mouse B16F0 cells implanted C57BL/6J mouse assessed per gram of tissue at 0.4 to 5.5 MBq, iv after 3 hrs by gamma counter; type: ADME, organism-based; conditions: in vivo
Thyroid gland [17] = assay: Biodistribution in thyroid of mouse B16F0 cells implanted C57BL/6J mouse assessed per gram of tissue at 0.4 to 5.5 MBq, iv after 6 hrs by gamma counter; type: ADME, organism-based; conditions: in vivo
Thyroid gland [18] = assay: Biodistribution in thyroid of mouse B16F0 cells implanted C57BL/6J mouse assessed per gram of tissue at 0.4 to 5.5 MBq, iv after 0.25 hrs by gamma counter; type: ADME, organism-based; conditions: in vivo
Spleen [19] = assay: Biodistribution in spleen of mouse B16F0 cells implanted C57BL/6J mouse assessed per gram of tissue at 0.4 to 5.5 MBq, iv after 0.25 hrs by gamma counter; type: ADME, organism-based; conditions: in vivo
Spleen [20] = assay: Biodistribution in spleen of mouse B16F0 cells implanted C57BL/6J mouse assessed per gram of tissue at 0.4 to 5.5 MBq, iv after 1 hr by gamma counter; type: ADME, organism-based; conditions: in vivo
Intestine [21] = assay: Biodistribution in intestine of mouse B16F0 cells implanted C57BL/6J mouse assessed per gram of tissue at 0.4 to 5.5 MBq, iv after 1 hr by gamma counter; type: ADME, organism-based; conditions: in vivo
Bone [22] = assay: Biodistribution in bone of mouse B16F0 cells implanted C57BL/6J mouse assessed per gram of tissue at 0.4 to 5.5 MBq, iv after 3 hrs by gamma counter; type: ADME, organism-based, Bone element; conditions: in vivo
Bone [23] = assay: Biodistribution in bone of mouse B16F0 cells implanted C57BL/6J mouse assessed per gram of tissue at 0.4 to 5.5 MBq, iv after 6 hrs by gamma counter; type: ADME, organism-based, Bone element; conditions: in vivo
Stomach [24] = assay: Biodistribution in stomach of mouse B16F0 cells implanted C57BL/6J mouse assessed per gram of tissue at 0.4 to 5.5 MBq, iv after 3 hrs by gamma counter; type: ADME, organism-based; conditions: in vivo
Stomach [25] = assay: Biodistribution in stomach of mouse B16F0 cells implanted C57BL/6J mouse assessed per gram of tissue at 0.4 to 5.5 MBq, iv after 6 hrs by gamma counter; type: ADME, organism-based; conditions: in vivo
[26] = Biodistribution in tumor of mouse B16F0 cells implanted C57BL/6J mouse assessed per gram of tissue at 0.4 to 5.5 MBq, iv after 6 hrs by gamma counter; type: ADME, organism-based, Neoplasm; conditions: in vivo
[27] = Biodistribution in eye of mouse B16F0 cells implanted C57BL/6J mouse assessed per gram of tissue at 0.4 to 5.5 MBq, iv after 0.25 hrs by gamma counter; type: ADME, organism-based; conditions: in vivo
Thyroid gland [28] = assay: Biodistribution in thyroid of mouse B16F0 cells implanted C57BL/6J mouse assessed per gram of tissue at 0.4 to 5.5 MBq, iv after 3 hrs by gamma counter; type: ADME, organism-based; conditions: in vivo
Intestine [29] = assay: Biodistribution in intestine of mouse B16F0 cells implanted C57BL/6J mouse assessed per gram of tissue at 0.4 to 5.5 MBq, iv after 6 hrs by gamma counter; type: ADME, organism-based; conditions: in vivo
Thyroid gland [30] = assay: Biodistribution in thyroid of mouse B16F0 cells implanted C57BL/6J mouse assessed per gram of tissue at 0.4 to 5.5 MBq, iv after 1 hr by gamma counter; type: ADME, organism-based; conditions: in vivo
[31] = Biodistribution in tumor of mouse B16F0 cells implanted C57BL/6J mouse assessed per gram of tissue at 0.4 to 5.5 MBq, iv after 3 hrs by gamma counter; type: ADME, organism-based, Neoplasm; conditions: in vivo
Lung [32] = assay: Biodistribution in lung of mouse B16F0 cells implanted C57BL/6J mouse assessed per gram of tissue at 0.4 to 5.5 MBq, iv after 0.25 hrs by gamma counter; type: ADME, organism-based; conditions: in vivo
[33] = Biodistribution in tumor of mouse B16F0 cells implanted C57BL/6J mouse assessed per gram of tissue at 0.4 to 5.5 MBq, iv after 0.25 hrs by gamma counter; type: ADME, organism-based, Neoplasm; conditions: in vivo

| Drug uptake [1] | Drug uptake [2] | logD [3] | Drug uptake (Stomach [4]) | Drug uptake (Stomach [5]) | Drug uptake (Bone [6]) | Drug uptake [7] | Drug uptake (Lung [8]) | Drug uptake [9] | Drug uptake (Intestine [10]) | Drug uptake (Bone [11]) | Drug uptake (Intestine [12]) | Drug uptake (Spleen [13]) | Drug uptake (Lung [14]) | Drug uptake (Spleen [15]) | Drug uptake (Lung [16]) | Drug uptake (Thyroid gland [17]) | Drug uptake (Thyroid gland [18]) | Drug uptake (Spleen [19]) | Drug uptake (Spleen [20]) | SMILES | other results |
| --- | --- | --- | --- | --- | --- | --- | --- | --- | --- | --- | --- | --- | --- | --- | --- | --- | --- | --- | --- | --- | --- |
| 15.8% | 14.3% | 1.52 | 3.3% | 8.5% | 3.89% | 12.7% | 2.2% | 4.8% | 8.2% | 2% | 4.2% | 4.1% | 4.5% | 5.3% | 3.1% | 2% | 10.2% | 11.2% | 7.4% | CCCCN(C)CCCCNC(=O)c1ccc([18F])nc1 | Drug uptake (Intestine [21]): 5.8%; Drug uptake (Bone [22]): 1.4%; Drug uptake (Bone [23]): 1%; Drug uptake (Stomach [24]): 2.4%; Drug uptake (Stomach [25]): 1.8%; Drug uptake [26]: 5.3%; Drug uptake [27]: 11.3%; Drug uptake (Thyroid gland [28]): 2.9%; Drug uptake (Intestine [29]): 3.1%; Drug uptake (Thyroid gland [30]): 5.4%; Drug uptake [31]: 5.3%; Drug uptake (Lung [32]): 12.1%; Drug uptake [33]: 4% |
| 27.4% | 36.3% | 0.94 | 6.8% | 14.7% | 4.8% | 38% | 0.2% | 14.6% | 7.8% | 3.4% | 7.1% | 0.5% | 1.5% | 2.5% | 0.35% | 3.2% | 4.5% | 11.8% | 9.2% | CCN(CC)CCNC(=O)c1cccnc1[18F] | Drug uptake (Intestine [21]): 7.1%; Drug uptake (Bone [22]): 4.6%; Drug uptake (Bone [23]): 5.6%; Drug uptake (Stomach [24]): 1.9%; Drug uptake (Stomach [25]): 0.7%; Drug uptake [26]: 4.8%; Drug uptake [27]: 36.7%; Drug uptake (Thyroid gland [28]): 2.1%; Drug uptake (Intestine [29]): 3.6%; Drug uptake (Thyroid gland [30]): 2.2%; Drug uptake [31]: 17.3%; Drug uptake (Lung [32]): 5%; Drug uptake [33]: 10.6% |
